Measured values as given in article PMC4723341, “Ribonuclease H/DNA Polymerase HIV-1 Reverse Transcriptase Dual Inhibitor: Mechanistic Studies on the Allosteric Mode of Action of Isatin-Based Compound RMNC6” (PLoS ONE, 2016).

Columns and labels:
[1] = system: HIV-1 RT-associated RNase H activity, V106A RT; assay: RNase H activity assay, V106A RT; format: biochemical, HIV-1 group M subtype B; conditions: V106A RT
Procedure: HIV RT-associated RNase H activity was measured as described in 100 μL reaction volume containing 50 mM Tris-HCl buffer pH 7.8, 6 mM MgCl2, 1 mM dithiothreitol (DTT), 80 mM KCl, 0.25 μM hybrid RNA/DNA 5'-GAUCUGAGCCUGGGAGCU-Fluorescin-3' (HPLC, dry, QC: Mass Check) (available from Metabion) 5'-Dabcyl-AGCTCCCAGGCTCAGATC-3'(HPLC, dry, QC: Mass Check), increasing concentrations of inhibitors, whose dilution were made in water, and different amount of enzymes according to a linear range of dose-response curve: 20 ng of WT RT; 60 ng K103N RT; 37.5 ng V106A RT; 75 ng V108A RT; 5 ng Y181C RT; 50 ng Y188A RT; 30 ng Y188L RT; 100 ng E224A RT; 37.5 ng P225A RT; 20 ng P226A RT; 18 ng F227A RT; 30 ng L228A RT; 30 ng W229A RT; 10 ng M230A RT; 30 ng G231A RT; 62.5 ng N474A RT; 1 μg Y501A RT; 100 ng A502F RT; 37.5 ng A508V RT; 38 ng HIV-1 group O RT. The reaction mixture was incubated for 1 h at 37°C, stopped by addition of EDTA and products were measured with a multilabel counter plate reader Victor 3 (Perkin Elmer model 1420–051) equipped with filters for 490/528 nm (excitation/emission wavelength)

[2] = target: T1, HIV-1 RT-associated RDDP activity, Y188L RT (Human immunodeficiency virus type 1 group M subtype B, UniProt P04585, Y775L); assay: RDDP activity assay, Y188L RT; format: biochemical, HIV-1 group M subtype B
T1 construct: The 1:1 ration between the p66/p51 subunits was also verified; made in house; host or cells: E. coli M15

[3] = target: HIV-1 RT-associated RDDP activity, HIV-1 group O RT (Human immunodeficiency virus type 1 group O, UniProt Q79666); assay: RDDP activity assay, HIV-1 group O RT; format: biochemical; conditions: read-out: IC50 RDDP
Text: Recombinant HIV-1 group O RT was expressed and purified as previously described. It was obtained as a heterodimer composed of subunits of 66 and 51 kDa, with a polyhistidine tag at the C-terminus of p66. For this purpose, the RT p66 subunit encoded within a p66RTB expression vector was co-expressed with the HIV-1 protease in E. coli XL-1 Blue, and the obtained heterodimers were then purified by ionic exchange followed by chromatography on Ni2+-nitriloacetic acid agarose. The enzyme was quantified by active site titration before biochemical studies.
RNA-dependent DNA polymerase (RDDP) activity was measured as described in 25 μL volume containing 60 mM Tris-HCl buffer pH 8.1, 8 mM MgCl2, 60 mM KCl, 13 mM DTT, 2.5 μM poly(A)-oligo(dT), 100 μM dTTP, increasing concentrations of inhibitors, whose dilution were made in water, and different amounts of enzymes according to a linear range of dose-response curve: 6 ng wt RT; 30 ng K103N RT; 12 ng V106ART; 19 ng V108A RT; 1.51.5 ng Y181C RT; 45 ng Y188A RT; 15 ng Y188L RT; 30 ng E224A RT; 15 ng P225A RT; 18 ng P226A RT; 23 ng F227A RT; 15 ng L228A RT; 30 ng W229A RT; 30 ng M230A RT; 15 ng G231A RT; 15 ng N474A RT; 15 ng Y501A RT; 15 ng A502F RT; 19 ng A508V RT; 38 ng HIV-1 group O RT. After enzyme addition, the reaction mixture was incubated for 30 min at 37°C and the stopped by addition of EDTA. […]

[4] = target: T2, HIV-1 RT-associated RDDP activity, V106A RT (Human immunodeficiency virus type 1 group M subtype B, UniProt P04585, V693A); assay: biochemical; parameters: species or system HIV-1 group M subtype B
T2 construct: The 1:1 ration between the p66/p51 subunits was also verified; made in house; host or cells: E. coli M15

[5] = target: T3, HIV-1 RT-associated RDDP activity, P225A RT (Human immunodeficiency virus type 1 group M subtype B, UniProt P04585, P812A); assay: biochemical; parameters: species or system HIV-1 group M subtype B
T3 construct: The 1:1 ration between the p66/p51 subunits was also verified; made in house; host or cells: E. coli M15

[6] = target: T4, HIV-1 RT-associated RDDP activity, P226A RT (Human immunodeficiency virus type 1 group M subtype B, UniProt P04585, P813A); assay: biochemical; parameters: species or system HIV-1 group M subtype B
T4 construct: The 1:1 ration between the p66/p51 subunits was also verified; made in house; host or cells: E. coli M15

[7] = target: T5, HIV-1 RT-associated RDDP activity, F227A RT (Human immunodeficiency virus type 1 group M subtype B, UniProt P04585, F814A); assay: biochemical; parameters: species or system HIV-1 group M subtype B
T5 construct: The 1:1 ration between the p66/p51 subunits was also verified; made in house; host or cells: E. coli M15

[8] = system: HIV-1 RT-associated RDDP activity, F227A RT; assay: biochemical; parameters: species or system HIV-1 group M subtype B; conditions: F227A RT
[9] = target: T6, HIV-1 RT-associated RDDP activity, W229A RT (Human immunodeficiency virus type 1 group M subtype B, UniProt P04585, W816A); assay: biochemical; parameters: species or system HIV-1 group M subtype B
T6 construct: The 1:1 ration between the p66/p51 subunits was also verified; made in house; host or cells: E. coli M15

[10] = target: T7, HIV-1 RT-associated RDDP activity, G231A RT (Human immunodeficiency virus type 1 group M subtype B, UniProt P04585, G818A); assay: biochemical; parameters: species or system HIV-1 group M subtype B
T7 construct: The 1:1 ration between the p66/p51 subunits was also verified; made in house; host or cells: E. coli M15

[11] = target: T8, HIV-1 RT-associated RDDP activity, N474A RT (Human immunodeficiency virus type 1 group M subtype B, UniProt P04585, N1061A); assay: biochemical; parameters: species or system HIV-1 group M subtype B
T8 construct: The 1:1 ration between the p66/p51 subunits was also verified; made in house; host or cells: E. coli M15

[12] = target: T9, HIV-1 RT-associated RDDP activity, A508V RT (Human immunodeficiency virus type 1 group M subtype B, UniProt P04585, A1095V); assay: biochemical; parameters: species or system HIV-1 group M subtype B
T9 construct: The 1:1 ration between the p66/p51 subunits was also verified; made in house; host or cells: E. coli M15

With `CC(C)c1ccc(O)c(=O)c(O)c1` [BTP, β-thujaplicinol, reference compound] the “Fold of increase of RNase H IC50 with respect to wt RT” value [1] was 0.8.

For `N#Cc1ccc(-c2csc(NN=C3C(=O)Nc4ccccc43)n2)cc1` [RMNC6, (Z)-4-(2-(2-(2-oxoindolin-3-ylidene)hydrazinyl)thiazol-4-yl)benzonitrile], the IC50 [2] was 16.5 ± 3.7 µM, the IC50 [3] was 20.1 ± 7.4 µM and the IC50 [4] was 25.1 ± 2.3 µM. The “Fold of increase of RDDP IC50 with respect to wt RT” value (“Fold of increase of RDDP IC50” for short) ([4]; V106A RT) was 2.5, the IC50 [5] was 3.1 ± 0.3 µM and the “Fold of increase of RDDP IC50” value ([5]; P225A RT) was 0.3. For the same compound, the IC50 [6] was 18.9 ± 0.7 µM, the “Fold of increase of RDDP IC50” value ([6]; P226A RT) was 1.9 and the IC50 [7] was 15.2 ± 0.9 µM. The “Fold of increase of RDDP IC50” value [8] was 1.5, the IC50 [9] was 15.4 ± 2.8 µM and the “Fold of increase of RDDP IC50” value ([9]; W229A RT) was 1.6. For the same compound, the IC50 [10] was 10.8 ± 2.4 µM, the “Fold of increase of RDDP IC50” value ([10]; G231A RT) was 1.1 and the IC50 [11] was 12.7 ± 1.7 µM. The “Fold of increase of RDDP IC50” value ([11]; N474A RT) was 1.3, the IC50 [12] was 19.3 ± 2.8 µM and the “Fold of increase of RDDP IC50” value ([12]; A508V RT) was 2.0.
